Results as given in BigSolDB 2.1.

O=[N+]([O-])c1cc(F)c(F)cc1[N+](=O)[O-]
solubility (mole fraction)
Conditions	293.15 K	298.15 K	303.15 K	308.15 K	313.15 K	318.15 K	323.15 K	328.15 K	333.15 K
in mesitylene	0.00238	0.00259	0.00279	0.00309	0.00348	0.00397	0.00459	0.0055	0.00652
in methanol	0.00019	0.000263	0.000324	0.000401	0.000504	0.000632	0.000774	0.000956	0.00121
in n-butanol	3.8e-05	6e-05	9.5e-05	0.000142	0.000198	0.000278	0.000384	0.000546	0.000785
in n-propanol	4.5e-05	6.1e-05	8.5e-05	0.00012	0.000186	0.000278	0.000413	0.000595	0.00083
in o-xylene	0.00213	0.00236	0.00277	0.00327	0.00377	0.00441	0.00513	0.00598	0.00701
in p-xylene	0.00172	0.00199	0.00228	0.00267	0.00323	0.00395	0.00494	0.00647	0.0085
in tetrachloromethane	–	2.2e-05	4.7e-05	9.5e-05	0.000168	0.000276	0.000426	0.000614	0.000854
in toluene	0.00135	0.00154	0.00201	0.00268	0.00349	0.00448	0.00551	0.00669	0.00781
